Results as given in ChEMBL document CHEMBL5032519, “Divergent synthesis and biological evaluation of 2-(trifluoromethyl)pyridines as virulence-attenuating inverse agonists targeting PqsR” (Eur J Med Chem, 2021).
Converted amounts (≈) assume the structure as drawn. The source made the active and inactive calls. The rule behind the calls is not given here.

Experiments:
[1] = Cytotoxicity against human HepG2 cells; type: cell-based; details: read-out: LD50 (the source's name)
[2] = Half life in human S9 fraction; type: ADME, subcellular
[3] = Cytotoxicity against HEK293 cells; type: cell-based; details: human, read-out: LD50 (the source's name)
[4] = Kinetic solubility of compound; type: physicochemical; details: read-out: Kinetic_solubility
[5] = Inverse agonist activity at PqsR in Escherichia coli […] by cell-based reporter gene assay
[6] = target: T1, Transcriptional regulator MvfR (Pseudomonas aeruginosa PA14, UniProt A0A072ZLE6); experiment: Inverse agonist activity at PqsR in Pseudomonas aeruginosa assessed as reduction in pyocyanin production
T1 sequence (A0A072ZLE6 whole entry): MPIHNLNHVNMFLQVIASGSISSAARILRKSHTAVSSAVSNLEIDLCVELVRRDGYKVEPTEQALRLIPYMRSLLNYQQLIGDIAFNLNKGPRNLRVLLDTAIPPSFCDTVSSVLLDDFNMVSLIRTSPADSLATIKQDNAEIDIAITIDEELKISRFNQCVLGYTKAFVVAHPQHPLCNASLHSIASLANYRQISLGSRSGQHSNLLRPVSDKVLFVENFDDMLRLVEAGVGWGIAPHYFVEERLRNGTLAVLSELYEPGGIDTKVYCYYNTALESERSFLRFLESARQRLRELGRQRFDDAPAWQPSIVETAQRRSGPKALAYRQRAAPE

[7] = system: Escherichia coli; experiment: Inverse agonist activity at PqsR in Escherichia coli […] by measuring remaining activity at 1 uM by cell-based reporter gene assay relative to control
[8] = system: Pseudomonas aeruginosa; experiment: Antibiofilm activity against Pseudomonas aeruginosa assessed as reduction in CFU at 50 uM; type: functional, organism-based
[9] = system: Pseudomonas aeruginosa; experiment: Antibiofilm activity against Pseudomonas aeruginosa assessed as reduction in CFU at 50 uM in presence of TOB; type: functional, organism-based
[10] = target: T2, Transcriptional regulator MvfR (Pseudomonas aeruginosa PA14) (UniProt A0A072ZLE6); experiment: Inverse agonist activity at PqsR in Pseudomonas aeruginosa assessed as reduction in pyocyanin production at 0.2 uM relative to control; design: scale not given: the % may be the effect or the level left
T2 sequence (whole entry): T1 sequence (A0A072ZLE6 whole entry)

[11] = system: Pseudomonas aeruginosa; experiment: Antibiofilm activity against Pseudomonas aeruginosa assessed as reduction in CFU at 0.5 ug/ml; type: functional, organism-based; details: dose 0.5 µg/ml
[12] = target: T2, Transcriptional regulator MvfR (Pseudomonas aeruginosa PA14); experiment: Inverse agonist activity at PqsR in Pseudomonas aeruginosa assessed as reduction in pyocyanin production at 10 uM relative to control; design: scale not given: the % may be the effect or the level left; details: filed as inverse agonist

Q: Which results are given for `FC(F)(F)c1cc(NCC#Cc2ccc(Oc3ccccc3)cc2)ccn1`?
A: CC50 [1]: > 25000 nM; half-life [2]: 53 min; CC50 [3]: 10000 nM; solubility kinetic [4]: 13.2 µM (≈ 4.86 µg/mL); IC50 [5]: 20 nM; IC50 [6]: 490 nM

Q: For `Fc1ccc(C#CCNc2ccnc(C(F)(F)F)c2)cc1`, which CC50 [1] is on record?
A: > 50000 nM

Q: And the half-life [2]?
A: 61.2 min

Q: And the CC50 [3]?
A: > 50000 nM

Q: And the solubility kinetic [4]?
A: > 200 µM

Q: And the IC50 [5]?
A: 141 nM

Q: What about the IC50 [6] of the same molecule?
A: 3470 nM

Q: For `CC(C)Oc1ccc(C#CCNc2ccnc(C(F)(F)F)c2)cc1Cl`, which IC50 [5] is on record?
A: 129 nM

Q: And the IC50 [6]?
A: 560 nM

Q: Which results are given for `FC(F)(F)c1cc(NCC#Cc2ccc(Cl)cc2)ccn1`?
A: IC50 [5]: 281 nM; IC50 [6]: 7970 nM

Q: With `FC(F)(F)c1cc(NCCCc2ccc(Cl)cc2)ccn1` as the molecule, how does the IC50 [5] read?
A: 149 nM

Q: What about the IC50 [6] of the same molecule?
A: 1050 nM

Q: For `FC(F)(F)c1cc(NCCCc2ccccc2)ccn1`, which Activity [7] is on record?
A: 52%

Q: Which Activity [7] does the source give for `COc1cccc(CCCNc2ccnc(C(F)(F)F)c2)c1` here?
A: 59%

Q: With `CCOc1ccc(C#CCNc2ccnc(C(F)(F)F)c2)cc1Cl` as the molecule, how does the IC50 [5] read?
A: 150 nM

Q: What about the IC50 [6] of the same molecule?
A: 390 nM

Q: For `Nc1cc(NCCCc2ccc(F)cc2)cc(C(F)(F)F)n1`, which half-life [2] is on record?
A: 56 min

Q: What about the IC50 [5] of the same molecule?
A: 140 nM

Q: What about the IC50 [6] of the same molecule?
A: 6900 nM

Q: Which Activity [7] does the source give for `COc1cccc(C#CCNc2ccnc(C(F)(F)F)c2)c1` here?
A: 58%

Q: For `FC(F)(F)c1cc(SCC#Cc2ccc(Cl)cc2)ccn1`, which CC50 [1] is on record?
A: > 100000 nM

Q: What about the half-life [2] of the same molecule?
A: 43.9 min

Q: What about the CC50 [3] of the same molecule?
A: > 100000 nM

Q: What about the solubility kinetic [4] of the same molecule?
A: 42.4 µM (≈ 13.9 µg/mL)

Q: With `Oc1ccc(C#CCNc2ccnc(C(F)(F)F)c2)cc1` as the molecule, how does the Activity [7] read?
A: 82%

Q: With `FC(F)(F)c1cc(NC/C=C/c2ccc(Oc3ccccc3)cc2)ccn1` as the molecule, how does the IC50 [5] read?
A: 464 nM

Q: What about the IC50 [6] of the same molecule?
A: 3830 nM

Q: Which Activity ([7]; filed as inverse agonist) does the source give for `FC(F)(F)c1cc(NC/C=C\c2ccc(Cl)nc2)ccn1` here?
A: 45%

Q: Which Activity [7] does the source give for `Fc1ccc(C#CCNc2ccnc(C(F)(F)F)c2)c(F)c1` here?
A: 70%

Q: For `FC(F)(F)c1cc(NCC#Cc2ccc(Br)cc2)ccn1`, which Activity [7] is on record?
A: 115%

Q: For `CC(C)Oc1ccc(C#CCNc2ccnc(C(F)(F)F)c2)cc1F`, which CC50 [1] is on record?
A: 69800 nM

Q: What about the half-life [2] of the same molecule?
A: 25.3 min

Q: And the Activity [8]?
A: Active

Q: What about the CC50 [3] of the same molecule?
A: 61900 nM

Q: And the solubility kinetic [4]?
A: 58.8 µM (≈ 20.7 µg/mL)

Q: What about the Activity [9] of the same molecule?
A: Active

Q: What about the IC50 [5] of the same molecule?
A: 80 nM

Q: And the IC50 [6]?
A: 440 nM

Q: Which half-life [2] does the source give for `Fc1ccc(CCCNc2ccnc(C(F)(F)F)c2)cc1` here?
A: 32.7 min

Q: And the CC50 [3]?
A: 25000 nM

Q: And the solubility kinetic [4]?
A: 93.9 µM (≈ 28 µg/mL)

Q: What about the IC50 [5] of the same molecule?
A: 251 nM

Q: What about the IC50 [6] of the same molecule?
A: 3650 nM

Q: For `CCOc1ccc(C#CCNc2ccnc(C(F)(F)F)c2)cc1F`, which half-life [2] is on record?
A: 13 min

Q: And the CC50 [3]?
A: 56900 nM

Q: And the solubility kinetic [4]?
A: 60.4 µM (≈ 20.4 µg/mL)

Q: And the IC50 [6]?
A: 250 nM

Q: Which Activity [7] does the source give for `FC(F)(F)c1cc(NC/C=C/c2ccc(Cl)nc2)ccn1` here?
A: 81%

Q: With `FC(F)(F)c1cc(NCc2cn(-c3ccc(Oc4ccccc4)cc3)nn2)ccn1` as the molecule, how does the half-life [2] read?
A: 169 min

Q: Which Activity ([7]; filed as inverse agonist) does the source give for `COc1ccc(C#CCNc2ccnc(C(F)(F)F)c2)cc1Cl` here?
A: 29%

Q: What about the Activity [10] of the same molecule?
A: 4%

Q: Which Activity [11] does the source give for `NC[C@H]1O[C@H](O[C@H]2[C@H](O)[C@@H](O[C@H]3O[C@H](CO)[C@@H](O)[C@H](N)[C@H]3O)[C@H](N)C[C@@H]2N)[C@H](N)C[C@@H]1O` here?
A: inactive

Q: For `FC(F)(F)c1cc(NCC#Cc2ccc(Cl)c(Cl)c2)ccn1`, which Activity ([7]; filed as inverse agonist) is on record?
A: 35%

Q: Which IC50 [6] does the source give for `CC(C)Oc1ccc(C#CCNc2ccnc(C(F)(F)F)c2)cc1` here?
A: 650 nM

Q: Which IC50 [6] does the source give for `COc1ccc(C#CCNc2ccnc(C(F)(F)F)c2)cc1F` here?
A: 3170 nM

Q: Which Activity [12] does the source give for `FC(F)(F)c1cc(NC/C=C/c2ccc(Cl)cc2)ccn1` here?
A: 93%

Q: And the IC50 [5]?
A: 479 nM

Q: Which Activity [10] does the source give for `COc1ccc(C#CCNc2ccnc(C(F)(F)F)c2)cc1C` here?
A: 5%

Q: And the IC50 [5]?
A: 289 nM

Q: With `Fc1cccc(C#CCNc2ccnc(C(F)(F)F)c2)c1` as the molecule, how does the IC50 [5] read?
A: 222 nM

Q: Which results are given for `FC(F)(F)c1cc(NCCCc2ccc(Oc3ccccc3)cc2)ccn1`?
A: Activity ([7]; filed as inverse agonist): -41%; Activity [10]: 0%

Q: Which IC50 [5] does the source give for `CCOc1ccc(C#CCNc2ccnc(C(F)(F)F)c2)cc1` here?
A: 170 nM

Q: What about the IC50 [6] of the same molecule?
A: 390 nM

Q: With `FC(F)(F)c1cc(NCC#Cc2ccc(Cl)nc2)ccn1` as the molecule, how does the Activity ([7]; filed as inverse agonist) read?
A: 33%

Q: Which Activity ([7]; filed as inverse agonist) does the source give for `COc1ccc(C#CCNc2ccnc(C(F)(F)F)c2)cc1` here?
A: 8%

Q: Which Activity [7] does the source give for `FC(F)(F)c1cc(NCC#Cc2ccc(Cl)cn2)ccn1` here?
A: 53%
